Counter-ions that a name gives are not always drawn. Values belong to the molecule of their own block, whether it stands above or below them.
What was measured:
BSA = assay: Screen of additives for prevention of aggregation (Table 5); assay type: physicochemical, bovine; details: 12.5 mg/mL BSA, 70°C, four columns in printed order, heads missing
trypsin = assay: Insulin digestion in immobilized enzyme reactor, buffer screening (Table 7); assay type: biochemical, porcine; details: IMER, 70°C, 60 s
porcine trypsin = test system: T1, porcine trypsin; assay: Insulin digestion by trypsin in solution, buffer screening (Table 9); assay type: biochemical; details: 37°C, 18 h
T1 construct: purchased

[1] = Plasma digestion with buffer/additive combinations, aggregation; assay type: physicochemical, beagle; details: 10% in 50mM TBS, 100mM CaCl2; 90 minutes

SMILES: CN(C)C=O [DMF, dimet ylformamide]
aggregation (BSA; 20%): Y and Υ

SMILES: C[C@H](CCC(=O)O)[C@H]1CC[C@H]2[C@@H]3CC[C@@H]4C[C@H](O)CC[C@]4(C)[C@H]3C[C@H](O)[C@]12C [Deoxycholate]
aggregation (BSA; additive concentration not given): Υ

SMILES: NC=O [Formamide]
Digested (trypsin; 5%): 1424720 | Peptide (trypsin; 5%): 580956 | Undigested (trypsin; 5%): 3061491 | Digested (trypsin; 10%): 745680 | Peptide (trypsin; 10%): 305599 | Undigested (trypsin; 10%): 3827192 | Digested (trypsin; 15%): 375288 | Peptide (trypsin; 15%): 155245 | Undigested (trypsin; 15%): 4129486 | Digested (trypsin; 20%): 200621 | Peptide (trypsin; 20%): 82549 | Undigested (trypsin; 20%): 4430620 | Digested (porcine trypsin; 5%): 1126069 | Peptide (porcine trypsin; 5%): 500704 | Undigested (porcine trypsin; 5%): 3871868 | Digested (porcine trypsin; 10%): 1509456 | Peptide (porcine trypsin; 10%): 693291 | Undigested (porcine trypsin; 10%): 4196754 | Digested (porcine trypsin; 15%): 973971 | Peptide (porcine trypsin; 15%): 421130 | Undigested (porcine trypsin; 15%): 4281392 | Digested (porcine trypsin; 20%): 470938 | Peptide (porcine trypsin; 20%): 194156 | Undigested (porcine trypsin; 20%): 4620417 | aggregation [1]: significant aggregation

Digested (trypsin; 0.5M): 723258 | Peptide (trypsin; 0.5M): 309390 | Undigested (trypsin; 0.5M): 4114993 | Digested (trypsin; 1M): 423606 | Peptide (trypsin; 1M): 179523 | Undigested (trypsin; 1M): 4328875 | Digested (trypsin; 2M): 136773 | Peptide (trypsin; 2M): 56700 | Undigested (trypsin; 2M): 4244827 | Digested (trypsin; 4M): 40578 | Peptide (trypsin; 4M): 15000 | Undigested (trypsin; 4M): 4562051 | Digested (trypsin; 6M): 9402 | Peptide (trypsin; 6M): 2447 | Undigested (trypsin; 6M): 4396495 | aggregation (BSA; 0.5M, listed as Guanidine HC1, hydrochloride): N and Ν
SMILES: N=C(N)N [Gdn HC1, guanidine hydrochloride]
Digested (porcine trypsin; 0.5M): 216251 | Peptide (porcine trypsin; 0.5M): 101735 | Undigested (porcine trypsin; 0.5M): 5487176 | Digested (porcine trypsin; 1M): 215746 | Peptide (porcine trypsin; 1M): 94828 | Undigested (porcine trypsin; 1M): 5229914 | Digested (porcine trypsin; 2M): 184318 | Peptide (porcine trypsin; 2M): 67546 | Undigested (porcine trypsin; 2M): 5455780 | Digested (porcine trypsin; 4M): 30954 | Peptide (porcine trypsin; 4M): 11014 | Undigested (porcine trypsin; 4M): 6195166 | Digested (porcine trypsin; 6M): 5871 | Peptide (porcine trypsin; 6M): 1647 | Undigested (porcine trypsin; 6M): 5301367

Digested (trypsin; 0.5M): 1816572 | Peptide (trypsin; 0.5M): 715848 | Undigested (trypsin; 0.5M): 2285541 | Digested (trypsin; 1M): 1448998 | Peptide (trypsin; 1M): 555954 | Undigested (trypsin; 1M): 2812910 | Digested (trypsin; 2M): 905391 | Peptide (trypsin; 2M): 349854 | Undigested (trypsin; 2M): 3812799 | Digested (trypsin; 4M): 285873 | Peptide (trypsin; 4M): 104200 | Undigested (trypsin; 4M): 4609299 | Digested (trypsin; 6M): 139668 | Peptide (trypsin; 6M): 49088 | Undigested (trypsin; 6M): 4675789 | Digested (trypsin; 8M): 43865 | Peptide (trypsin; 8M): 13979 | Undigested (trypsin; 8M): 4151508
SMILES: NC(N)=O [Urea]
Digested (porcine trypsin; 0.5M): 1220686 | Peptide (porcine trypsin; 0.5M): 538728 | Undigested (porcine trypsin; 0.5M): 3763696 | Digested (porcine trypsin; 1M): 1145096 | Peptide (porcine trypsin; 1M): 511139 | Undigested (porcine trypsin; 1M): 2972094 | Digested (porcine trypsin; 2M): 1106227 | Peptide (porcine trypsin; 2M): 490181 | Undigested (porcine trypsin; 2M): 3034093 | Digested (porcine trypsin; 4M): 860501 | Peptide (porcine trypsin; 4M): 389932 | Undigested (porcine trypsin; 4M): 2877527 | Digested (porcine trypsin; 6M): 529552 | Peptide (porcine trypsin; 6M): 301136 | Undigested (porcine trypsin; 6M): 3250299 | Digested (porcine trypsin; 8M): 156492 | Peptide (porcine trypsin; 8M): 69027 | Undigested (porcine trypsin; 8M): 2197015
